Results on one compound are retold here after US9993562B2, “Metallic gold cluster molecules as therapeutic agents for arthritic animals” (priority 2016, dated 2018).

Series [1] can be described thus: Amount of gold at the arthritic joints (FIG. 9). The class given is in vivo, DBA/1 male mice. Conditions: group 3, oral 1 mg/kg daily. As for the experimental part: (§1) On day 22, groups of mice were given different drugs once each day for 28 days (4 weeks) until day 49 (end of week 7). The groups of mice were examined for inflammation and status.
In reference to FIG. 9, the amount of gold was measured at the arthritic joints of the variously treated mice groups.

The next series deals with IL-6. Nature of the series: Amount of IL-6 at the arthritic joints (FIG. 10). The class given is in vivo, DBA/1 male mice. The note with it: group 3, oral 1 mg/kg daily. As for the experimental part: as §1
(§2) In reference to FIGS. 10 and 11, the amount of pro-inflammation cytokine factors IL-6 and IL-1β were measured at the arthritic joints of the variously treated mice groups.

Series [2] relates to Collagen induced arthritis in mice. Nature of the series: Visual inflammation scoring of paws (0-4 per limb, four limbs summed), collagen induced arthritis. It counts as in vivo, DBA/1 male mice. The note with it: for Inflammation visual score (sum of four limbs, each 0-4): i.g. 1 mg/kg once daily from day 22.
Source text: Collagen induced arthritis in mice has been the standard animal model for studying rheumatoid arthritis and other polyarthritis. DBA/1 male mice weighted 20-22 grams were purchased from Hua-Fu-Kang Biotechnology Limited, Beijing, China. Type II collagen and Complete Freund's Adjuvant were purchased from Chondrex Inc., Redmond, Wash., USA. Auranofin was purchased from Sigma, USA and Dexamethasone was purchased from Jin-Yao Amino Acid Company, Tianjing, China. Gold25(peptide)9 cluster molecules were prepared according to Example 1.
(§3) Type II collagen was dissolved in 0.1 mM acetic acid solution and was emulsified with equal volume of Complete Freund's Adjuvant to make a 1.0 mg/ml Type II collagen emulsion. After one week of resting and environment adjustment, DBA/1 male mice were divided into groups, each group was consisted of 10 mice. Each animal was injected intradermally at the 2-3 cm base of the tail an emulsion of 100 μg Type II collagen. On day 21, a second booster dose of 100 μg Type II collagen emulsion was injected. Negative control group of mice are injected with equal amount of 0.9% Sodium Chloride solution.
as §1
The inflammation was assessed by means of a visual scoring method where mouse individual paws were graded from 0-4 as follows:
0 score: no redness and no swelling;
1 score: mild erythema at the toes;
2 scores: toe joints and paw swelling;
3 scores: swelling below ankle
4 scores: all ankle and paw swelling. • All four limbs of each mouse were examined and scored, and scores of all four limbs were added together for each mouse.

For series [3] the test system is unchanged. Briefly: Hematoxylin and eosin histology of hind limb joint sections (FIG. 8). It counts as in vivo, DBA/1 male mice. The note with it: H&E; oral 1 mg/kg daily. As to the method: as §3, §1
To evaluate the soft tissue damages around the joint area, the joint tissues of the hind limbs of each mouse groups were then fixed, embedded, sectioned into slides and hematoxylin and eosin stained to examine the histology and histopathology changes at the joints.

The test system is the same in series [4]. Briefly: Pictures of hind limb swelling (FIG. 6), collagen induced arthritis. The class given is in vivo, DBA/1 male mice. Conditions: end of 7 weeks of the experiment; oral 1 mg/kg daily. As for the experimental part:
as §3, §1

Series [5] in a line: Effect of treatment on body weight of type II collagen immunized mice. The note with it: mean ± sd. It counts as in vivo, DBA/1 male mice. As to the method: DBA/1 male mice weighted 20-22 grams were purchased from Hua-Fu-Kang Biotechnology Limited, Beijing, China. Type II collagen and Complete Freund's Adjuvant were purchased from Chondrex Inc., Redmond, Wash., USA. […] Gold25(peptide)9 cluster molecules were prepared according to Example 1.
as §3, §1

The conditions of series [6]: patients; cited from earlier work.
For the next series, the system named is IL-1β. Briefly: Amount of IL-1β at the arthritic joints (FIG. 11). It counts as in vivo, DBA/1 male mice. The note with it: group 3, oral 1 mg/kg daily. As to the method: as §1, §2
The conditions of series [7]: light and heat; cited from earlier work.
The subject of series [8] is Collagen induced arthritis in mice. Nature of the series: 3D CT scan of paw joints, bone density changes (FIG. 7). Conditions: end of week 7; oral 1 mg/kg daily. The class given is in vivo, DBA/1 male mice. As for the experimental part: as §3, §1
The conditions of series [9]: orally administered form, crystalline solid; cited from earlier work.

As for `CC[PH](CC)(CC)[Au][S][C@@H]1O[C@H](COC(C)=O)[C@@H](OC(C)=O)[C@H](OC(C)=O)[C@H]1OC(C)=O` [Auranofin, 2,3,4,6-tetra-o-acetyl-1-thio-β-D-glucopyranosato-S-(triethyl-phosphine)-gold, reference compound], the “Amount of gold at the arthritic joints” value in [1] was “Less but comparable amount gold”. In addition, the “Amount of IL-6 at the arthritic joints” value in the series on IL-6 is reported as “remained high”. Besides, the “Inflammation visual score (sum of four limbs, each 0-4)” value in series [2] (35 d) worked out at 6.66 ± 2.00; in [2] (38 d) it was 5.77 ± 3.42; in series [2] (42 d) it was 8.11 ± 2.47; in series [2] (45 d), 8.33 ± 3.42; in [2] (49 d) it was 9.88 ± 3.06. The “Swelling scores (in words)” value in series [2] (oral 1 mg/kg body weight) is recorded as “slightly lower swelling scores”. Also, in [3], the “Joint histopathology (bone erosion, soft tissue damage, synovial macrophage infiltration)” value was “significant soft tissue damages at the joint areas, and large number of infiltration of synovial macrophage cells”. Moreover, in [4], the “Hind limb swelling in pictures (FIG. 6)” value is “swelling and no obvious improvement”. Also, the “Mice Body Weight” value in [5] (0 w (before dosing, which starts day 22), group i.g. 1 mg/kg) came out at 21.60 ± 1.17 g; in series [5] (1 wk (before dosing), group i.g. 1 mg/kg), 23.25 ± 1.11 g; in series [5] (2 wk (before dosing), group i.g. 1 mg/kg), 23.75 ± 1.11 g; in series [5] (3 wk (before dosing), group i.g. 1 mg/kg), 24.35 ± 1.53 g; in series [5] (4 wk, i.g. 1 mg/kg once daily from day 22), 22.10 ± 1.10 g; in series [5] (5 wk, i.g. 1 mg/kg once daily from day 22) it was 21.74 ± 1.14 g. Further, the “Mice Body Weight” value in series [5] (6 wk, i.g. 1 mg/kg once daily from day 22) was determined as 23.24 ± 0.08 g; in series [5] (7 wk, i.g. 1 mg/kg once daily from day 22), 23.33 ± 0.25 g. In addition, the Side effects entry in series [6] was “Diarrhea is the most commonly reported”. Besides, the “Amount of IL-1β at the arthritic joints” value in the series on IL-1β is “remained high”. The “Stability of the powder” value in [7] was “unstable and must be protected from light and heat”. The “Bone deformation and osteolysis of paw joints, 3D CT” value in series [8] was “still developed bone deformation and osteolysis”. For the same compound, in series [9], the Solubility in water entry is “insoluble in water”.
